Experimental data as given in patent US20250163104A1, “MACROCYCLIC IMMUNOMODULATORS” (priority 2021, published 2025).
*1 amine or outer side, *2 acyl side, *3 side chain or, on linkers, in order; H or OH if unused. Where a SMILES comes first, the peptide text is derived from it. Bridges are numbered along the chain shown (N, C = ends). [ ]: non-standard residue; d: D form. The star is where a group is joined. ξ: configuration not given here. X5 = O=C([C@H](Cc1ccc2ncccc2c1)N[*:1])[*:2]; Bip = N[C@@H](Cc1ccc(-c2ccccc2)cc1)C(=O)O; Phe(3-OMe) = COc1cccc(C[C@H](N)C(=O)O)c1; Phe(3-Me) = Cc1cccc(C[C@H](N)C(=O)O)c1; 1Nal = N[C@@H](Cc1cccc2ccccc12)C(=O)O; Val(3-OH) = CC(C)(O)[C@H](N)C(=O)O; aIle = CC[C@@H](C)[C@H](N)C(=O)O; 3Pal = N[C@@H](Cc1cccnc1)C(=O)O; 4Pal = N[C@@H](Cc1ccncc1)C(=O)O; Cha = N[C@@H](CC1CCCCC1)C(=O)O; dCha = N[C@H](CC1CCCCC1)C(=O)O; Thr(3ξ) = CC(O)[C@H](N)C(=O)O; Carboxymethyl = O=C(O)C*; Nle = CCCC[C@H](N)C(=O)O; Orn = NCCC[C@H](N)C(=O)O; Pra = C#CC[C@H](N)C(=O)O; Dab = NCC[C@H](N)C(=O)O; Dap = NC[C@H](N)C(=O)O

Target: T1, human PD-1 / PD-L1-Ig binding on Jurkat cell line over-expressing human PD-1 (Jurkat-PD-1) (Homo sapiens, UniProt Q15116)
T1 construct: expressed in transfected cells; host or cells: Jurkat
Assay: Jurkat-PD-1 Cell Binding High-Content Screening Assay (CBA)
Format: cell-based
Details: Jurkat-PD-1 cells, PE-labeled PD-L1-Ig 20 nM final; read-out: Jurkat HPD1_PDL1 IC50
Summary of the method: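 PE-PD-L1-Ig 20 nM final; cells in DMEM/10% FCS; cpd pre-incubation 2 h, 37° C; ligand 1 h; PFA fix + Hoechst 33342; high-content imaging read-out.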

T1 sequence (Q15116 25-288): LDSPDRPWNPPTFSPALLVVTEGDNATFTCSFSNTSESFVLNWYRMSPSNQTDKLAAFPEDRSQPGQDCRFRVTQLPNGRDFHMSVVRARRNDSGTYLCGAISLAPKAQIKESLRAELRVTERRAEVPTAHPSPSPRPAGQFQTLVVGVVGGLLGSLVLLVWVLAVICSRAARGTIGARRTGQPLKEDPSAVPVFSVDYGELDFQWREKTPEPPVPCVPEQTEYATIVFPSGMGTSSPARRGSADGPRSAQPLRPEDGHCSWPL

SMILES	IC50 [µM]
CC(C)C[C@@H]1NC(=O)[C@H](CCCCN)NC(=O)[C@@H](CC(C)C)NC(=O)[C@H](CCN)NC(=O)[C@H](Cc2cnc[nH]2)NC(=O)[C@H](Cc2ccc(-c3ccccc3)cc2)NC(=O)[C@H](C(C)C)NC(=O)[C@H](Cc2c[nH]c3ccccc23)NC(=O)[C@H](CC(=O)O)NC(=O)[C@H](Cc2ccc(O)cc2)NC(=O)[C@H](CC(N)=O)NC(=O)CSC[C@@H](C(=O)NCC(N)=O)NC(=O)[C@H](CO)NC(=O)[C@H](C(C)C)NC1=O [Compound 1139] ({CH2CO}-NYDWV[Bip]H[Dab][dL]KLVSCG-NH2; thioether N-14)	0.0444
CCCC[C@@H]1NC(=O)[C@H](CCN)NC(=O)[C@@H](CC(C)C)NC(=O)[C@H](CCCN)NC(=O)[C@H](C(C)C)NC(=O)[C@H](Cc2ccc(-c3ccccc3)cc2)NC(=O)[C@H](C(C)C)NC(=O)[C@H](Cc2cccc(C)c2)NC(=O)[C@H](CC(=O)O)NC(=O)[C@H](Cc2ccc(OCC(=O)O)cc2)NC(=O)[C@H](CN)NC(=O)CSC[C@@H](C(=O)N[C@@H](C)C(N)=O)NC(=O)[C@H]([C@@H](C)O)NC(=O)[C@H](C(C)C)NC1=O [Compound 1211] ({CH2CO}-[Dap]Y(Carboxymethyl)D[Phe(3-Me)]V[Bip]V[Orn][dL][Dab][Nle]VTCA-NH2; thioether N-14)	0.0089
CC(C)C[C@H]1NC(=O)[C@H](CCCN)NC(=O)[C@H](CCC(=O)O)NC(=O)[C@H](Cc2ccc(-c3ccccc3)cc2)NC(=O)[C@H](C(C)C)NC(=O)[C@H](Cc2ccc3ncccc3c2)NC(=O)[C@H](CC(=O)O)NC(=O)[C@H](Cc2ccc(OCC(=O)O)cc2)NC(=O)[C@H](CN)NC(=O)CSC[C@@H](C(=O)N[C@@H](C)C(N)=O)NC(=O)[C@H]([C@@H](C)O)NC(=O)[C@H](C(C)C)NC(=O)[C@H](CC2CCCCC2)NC(=O)[C@H](CCN)NC1=O [Compound 2145] ({CH2CO}-[Dap]Y(Carboxymethyl)D[X5]V[Bip]E[Orn][dL][Dab][Cha]VTCA-NH2; thioether N-14)	0.469
C#CC[C@H](NC(=O)[C@H](CCN)NC(=O)[C@@H]1CSCC(=O)N[C@@H](CCCN)C(=O)N[C@@H](Cc2ccc(OCC(=O)O)cc2)C(=O)N[C@@H](CC(=O)O)C(=O)N[C@@H](Cc2cccc(C)c2)C(=O)N[C@@H](Cc2ccc(OCC(=O)O)cc2)C(=O)N[C@@H](Cc2ccc(-c3ccccc3)cc2)C(=O)N[C@@H](Cc2ccc(OCC(=O)O)cc2)C(=O)N[C@@H](CCCN)C(=O)N[C@H](CC(C)C)C(=O)N[C@@H](CCN)C(=O)N[C@@H](CC2CCCCC2)C(=O)N[C@@H](C(C)(C)O)C(=O)N[C@@H](CO)C(=O)N1)C(N)=O [Compound 1853] ({CH2CO}-[Orn]Y(Carboxymethyl)D[Phe(3-Me)]Y(Carboxymethyl)[Bip]Y(Carboxymethyl)[Orn][dL][Dab][Cha][Val(3-OH)]SC[Dab][Pra]-NH2; thioether N-14)	0.0069
CC[C@H](C)[C@@H]1NC(=O)[C@H](Cc2ccc(-c3ccccc3)cc2)NC(=O)[C@H](C(C)C)NC(=O)[C@H](Cc2cccc(C)c2)NC(=O)[C@H](CC(=O)O)NC(=O)[C@H](Cc2ccc(OCC(=O)O)cc2)NC(=O)[C@H](Cc2ccncc2)NC(=O)CSC[C@@H](C(=O)N[C@@H](C)C(N)=O)NC(=O)[C@H]([C@@H](C)O)NC(=O)[C@H](C(C)C)NC(=O)[C@H](CC2CCCCC2)NC(=O)[C@H](CCN)NC(=O)[C@@H](CC(C)C)NC(=O)[C@H](CCCN)NC1=O [Compound 1198]	0.0156
CC(C)C[C@H]1NC(=O)[C@H](CCCN)NC(=O)[C@H](CCC(=O)O)NC(=O)[C@H](Cc2ccc(-c3ccccc3)cc2)NC(=O)[C@H](C(C)C)NC(=O)[C@H](Cc2cccc(Cl)c2)NC(=O)[C@H](CC(=O)O)NC(=O)[C@H](Cc2ccc(OCC(=O)O)cc2)NC(=O)[C@H](Cc2ccc(OCC(=O)O)cc2)NC(=O)CSC[C@@H](C(=O)N[C@@H](C)C(N)=O)NC(=O)[C@H]([C@@H](C)O)NC(=O)[C@H](C(C)C)NC(=O)[C@H](CC2CCCCC2)NC(=O)[C@H](CCN)NC1=O [Compound 1490]	0.0202
CCCC[C@H]1NC(=O)[C@H](CCCN)NC(=O)[C@H]([C@@H](C)CC)NC(=O)[C@H](Cc2ccc(-c3ccccc3)cc2)NC(=O)[C@H](C(C)C)NC(=O)[C@H](Cc2c[nH]c3ccccc23)NC(=O)[C@H](CC(=O)O)NC(=O)[C@H](Cc2ccc(C(=O)O)cc2)NC(=O)[C@H](Cc2ccc(OCC(=O)O)cc2)NC(=O)CSC[C@@H](C(=O)N[C@@H](C)C(N)=O)NC(=O)[C@H]([C@@H](C)O)NC(=O)[C@H](C(C)C)NC(=O)[C@H](CC2CCCCC2)NC(=O)[C@H](CCN)NC1=O [Compound 1707]	0.0186
CC(C)C[C@H]1NC(=O)[C@H](CCCN)NC(=O)[C@H](CCC(=O)O)NC(=O)[C@H](Cc2ccc(-c3ccccc3)cc2)NC(=O)[C@H](C(C)C)NC(=O)[C@H](Cc2c[nH]c3ccccc23)NC(=O)[C@H](CC(=O)O)NC(=O)[C@H](Cc2ccc(OCC(=O)O)cc2)NC(=O)[C@H](Cc2cnc[nH]2)NC(=O)CSC[C@@H](C(=O)N[C@@H](CC(N)=O)C(N)=O)NC(=O)[C@H](C(C)O)NC(=O)[C@H](C(C)C)NC(=O)[C@H](CC2CCCCC2)NC(=O)[C@H](CCN)NC1=O (stereo partly drawn) [Compound 2562] ({CH2CO}-HY(Carboxymethyl)DWV[Bip]E[Orn][dL][Dab][Cha]V[Thr(3ξ)]CN-NH2; thioether N-14)	0.0065
CC(C)C[C@H]1NC(=O)[C@H](CCCN)NC(=O)[C@H](C(C)O)NC(=O)[C@H](Cc2ccc(-c3ccccc3)cc2)NC(=O)[C@H](C(C)C)NC(=O)[C@H](Cc2c[nH]c3ccccc23)NC(=O)[C@H](CC(=O)O)NC(=O)[C@H](Cc2ccc(OCC(=O)O)cc2)NC(=O)[C@H](CN)NC(=O)CSC[C@@H](C(=O)N[C@@H](CC(N)=O)C(N)=O)NC(=O)[C@H](C(C)O)NC(=O)[C@H](C(C)C)NC(=O)[C@H](CC2CCCCC2)NC(=O)[C@H](Cc2c[nH]cn2)NC1=O (stereo partly drawn) [Compound 2552] ({CH2CO}-[Dap]Y(Carboxymethyl)DWV[Bip][Thr(3ξ)][Orn][dL]H[Cha]V[Thr(3ξ)]CN-NH2; thioether N-14)	0.0286
CC[C@@H](C)[C@@H]1NC(=O)[C@H](Cc2ccc(-c3ccccc3)cc2)NC(=O)[C@H](C(C)C)NC(=O)[C@H](Cc2c[nH]c3ccccc23)NC(=O)[C@H](CC(=O)O)NC(=O)[C@H](Cc2ccc(O)cc2)NC(=O)[C@H](CC(N)=O)NC(=O)CSC[C@@H](C(=O)N[C@@H](C)C(N)=O)NC(=O)[C@H]([C@@H](C)O)NC(=O)[C@H](C(C)C)NC(=O)[C@H](CC2CCCCC2)NC(=O)[C@H](CCN)NC(=O)[C@@H](CC2CCCCC2)NC(=O)[C@H](CCCN)NC1=O [Compound 1631] ({CH2CO}-NYDWV[Bip][aIle][Orn][dCha][Dab][Cha]VTCA-NH2; thioether N-14)	0.0441
CC(C)C[C@@H]1NC(=O)[C@H](CCN)NC(=O)[C@@H](CC(C)C)NC(=O)[C@H](C)NC(=O)[C@H](C(C)C)NC(=O)[C@H](Cc2ccc(-c3ccccc3)cc2)NC(=O)[C@H](C(C)C)NC(=O)[C@H](Cc2c[nH]c3ccccc23)NC(=O)[C@H](CC(=O)O)NC(=O)[C@H](Cc2ccc(O)cc2)NC(=O)[C@H](CC(N)=O)NC(=O)CSC[C@@H](C(=O)N[C@@H](C)C(N)=O)NC(=O)[C@H]([C@@H](C)O)NC(=O)[C@H](C(C)C)NC1=O [Compound 1014] ({CH2CO}-NYDWV[Bip]VA[dL][Dab]LVTCA-NH2; thioether N-14)	0.0167
CC(C)C[C@H]1NC(=O)[C@H](CCCN)NC(=O)[C@H](C(C)C)NC(=O)[C@H](Cc2ccc(-c3ccccc3)cc2)NC(=O)[C@H](C(C)C)NC(=O)[C@H](Cc2c[nH]c3ccccc23)NC(=O)[C@H](CC(=O)O)NC(=O)[C@H](Cc2ccc(OCC(=O)O)cc2)NC(=O)[C@H](CN)NC(=O)CSC[C@@H](C(=O)N[C@@H](C)C(N)=O)NC(=O)[C@H](Cc2cnc[nH]2)NC(=O)[C@H](C(C)C)NC(=O)[C@H](CC2CCCCC2)NC(=O)[C@H](CCN)NC1=O [Compound 1750] ({CH2CO}-[Dap]Y(Carboxymethyl)DWV[Bip]V[Orn][dL][Dab][Cha]VHCA-NH2; thioether N-14)	0.0113
CC(C)C[C@H]1NC(=O)[C@H](CCCN)NC(=O)[C@H](CCC(=O)O)NC(=O)[C@H](Cc2ccc(-c3ccccc3)cc2)NC(=O)[C@H](C(C)C)NC(=O)[C@H](Cc2cccc3ccccc23)NC(=O)[C@H](CC(=O)O)NC(=O)[C@H](Cc2ccc(OCC(=O)O)cc2)NC(=O)[C@H](CN)NC(=O)CSC[C@@H](C(=O)N[C@@H](C)C(N)=O)NC(=O)[C@H]([C@@H](C)O)NC(=O)[C@H](C(C)C)NC(=O)[C@H](CC2CCCCC2)NC(=O)[C@H](CCN)NC1=O [Compound 2146] ({CH2CO}-[Dap]Y(Carboxymethyl)D[1Nal]V[Bip]E[Orn][dL][Dab][Cha]VTCA-NH2; thioether N-14)	0.0106
Cc1cccc(C[C@@H]2NC(=O)[C@H](CC(=O)O)NC(=O)[C@H](Cc3ccc(OCC(=O)O)cc3)NC(=O)[C@H](Cc3cccnc3)NC(=O)CSC[C@@H](C(N)=O)NC(=O)[C@H]([C@@H](C)O)NC(=O)[C@H](C(C)C)NC(=O)[C@H](CC(C)C)NC(=O)[C@H](CCN)NC(=O)[C@@H](CC(C)C)NC(=O)[C@H](CCCN)NC(=O)[C@H](C(C)C)NC(=O)[C@H](Cc3ccc(-c4ccccc4)cc3)NC(=O)[C@H](C(C)C)NC2=O)c1 [Compound 1553] ({CH2CO}-[3Pal]Y(Carboxymethyl)D[Phe(3-Me)]V[Bip]V[Orn][dL][Dab]LVTC-NH2; thioether N-14)	0.0269
COc1cccc(C[C@@H]2NC(=O)[C@H](CC(=O)O)NC(=O)[C@H](Cc3ccncc3)NC(=O)[C@H](Cc3ccc(OCC(=O)O)cc3)NC(=O)CSC[C@@H](C(=O)N[C@@H](C)C(N)=O)NC(=O)[C@H]([C@@H](C)O)NC(=O)[C@H](C(C)C)NC(=O)[C@H](CC3CCCCC3)NC(=O)[C@H](CCN)NC(=O)[C@@H](CC(C)C)NC(=O)[C@H](CCCN)NC(=O)[C@H](CCC(=O)O)NC(=O)[C@H](Cc3ccc(-c4ccccc4)cc3)NC(=O)[C@H](C(C)C)NC2=O)c1 [Compound 1505] ({CH2CO}-Y(Carboxymethyl)[4Pal]D[Phe(3-OMe)]V[Bip]E[Orn][dL][Dab][Cha]VTCA-NH2; thioether N-14)	0.0237
